Here are results for five molecules from patent publication US10710988B2, “Piperazine derivative” (Astellas Pharma Inc., priority 2016, dated 2020).

The target in one experiment is T1, human MC4 receptor (Homo sapiens, UniProt P32245).
T1 construct: expressed in transfected cells; host or cells: FreeStyle 293-F cells (transient, electroporation)
Briefly: Human MC4 receptor activation, cAMP production in cells transiently expressing the receptor. Format: cell-based. The conditions noted are these: FreeStyle 293-F cells expressing human MC4 receptor, α-MSH maximum = 100%. An excerpt:
(§1) (1) Construction of Human MC Receptor-Expressing Vector
(§2) A human MC4 receptor gene (GenBank Accession No.: NM_005912.2), a human MC1 receptor gene (GenBank Accession No.: NM_002386.3), or a human MC3 receptor gene (GenBank Accession No.: NM_019888.3) was introduced into an expression vector pcDNA™ 3.1N/V5-His TOPO (registered trademark) (Thermo Fisher Scientific Inc).
(§3) (2) Construction of Cells Transiently Expressing Human MC Receptor
(§4) An expression vector for a human MC4, MC1, or MC3 receptor was introduced into FreeStyle™ 293-F cells (Thermo Fisher Scientific Inc., product number: R790-07). For the introduction, electroporation was employed. That is, 1×10^7 FreeStyle™ 293-F cells were suspended in 80 μL of an Electroporation Buffer (Thermo Fisher Scientific Inc., product number: B201-100), and 20 μg of the expression vector was added thereto. The resultant was put into a cuvette (OC-100 Processing Assembly, MaxCyte, Inc.) and electroporated with MaxCyte STX (registered trademark) (MaxCyte, Inc.). The cells were cultured for a day, suspended in a Cell Banker (registered trademark) 1 (TAKARA BIO INC. or JUJI FIELD Inc., product number: BLC-1), and stored frozen until they were used.
(§5) (3) Measurement of Amount of cAMP Production
(§6) Measurement was carried out by using a LANCE (registered trademark) Ultra cAMP Kit (PerkinElmer, Inc.) in accordance with the attached instructions. That is, after dissolution in DMSO, the test compound (a final concentration of 1 pM to 30 μM) diluted with an assay buffer (Hank's balanced salt solution, 5 mM 4-(2-hydroxyethyl)-1-piperazineethanesulfonic acid (HEPES), 0.5 mM 3-isobutyl-1-methylxanthine (IBMX), 0.1% bovine serum albumin, pH 7.4), or α-MSH (Bachem Inc., a final concentration of 1 pM to 30 μM) was added to OptiPlate-384 (PerkinElmer, Inc.). Furthermore, the suspension of the cells transiently expressing the human MC4, MC1, or MC3 receptor prepared using the assay buffer was added thereto at 1,000 cells/well, and then left to stand at room temperature for about 1 hour. Thereafter, an Eu-cAMP tracer solution and an ULight™-anti-cAMP solution were added thereto, and then the resulting solution was left to stand at room temperature for about 1 hour. The amount of cAMP was calculated using EnVision (registered trademark) (PerkinElmer Inc.).
(§7) For the agonistic activity, the efficacy (EC50 (μM)) was calculated by a non-linear regression method with a Sigmoid-Emax model, by defining the maximum reaction using α-MSH as 100% and the reaction using the vehicle alone as 0%, respectively.
(Cyclic AMP is a second messenger, typically raised through Gs and lowered through Gi signalling.)

A further experiment deals with T2, human MC3 receptor (Homo sapiens, UniProt P41968).
T2 construct: expressed in transfected cells; host or cells: FreeStyle 293-F cells (transient, electroporation)
The experiment is described as follows: Human MC3 receptor activation, cAMP production in cells transiently expressing the receptor. Format: cell-based. The note with it: FreeStyle 293-F cells expressing human MC3 receptor, α-MSH maximum = 100%.
Source text: as §1, §2, §3, §4, §5, §6, §7

The test system of experiment [1] is drug-induced voiding dysfunction model rat. The experiment is described as follows: Effect on drug-induced voiding dysfunction model rat. Format: in vivo. The note with it: male SD rats; atropine sulfate + midodrine hydrochloride induced voiding dysfunction; inhibition of decrease in voiding efficiency or increase of residual urine; P<0.05. The source says:
Male Sprague Dawley (SD) rats (Japan SLC, Inc.) were anesthetized with isoflurane and a cannula was placed in the bladder, the stomach, and the jugular vein. Then, the rats were awakened in a Baellman cage (Natsume Seisakusho Co., Ltd.). After a post-operative stabilization period, physiological saline was continuously infused into the bladder by an infusion pump (Terumo Corporation, product number: TE-331 S, STC-528) to induce voiding. Infusion of the physiological saline was stopped as soon as the voiding began, and the amount of the voided urine was measured using an electronic top-loading balance installed under the Ballman cage. After voiding ended, the residual urine was collected by gravity through the cannula implanted into the bladder and weighed, and the weight was taken as the amount of the residual urine. Furthermore, the intravesical pressure was measured by a pressure transducer (Nihon Kohden Corporation, product numbers: DX-100) through the bladder cannula. The test compound or the vehicle was administered into the stomach, and atropine sulfate (Sigma-Aldrich Co. LLC., 0.01 mg/kg) as an anticholinergic drug and midodrine hydrochloride (Sigma-Aldrich Co. LLC., 0.3 mg/kg) as an a adrenergic receptor agonist were intravenously administered to induce voiding dysfunction. The voiding efficiency (=[voided amount/(voided amount+amount of residual urine)]×100) and the amount of the residual urine before and after the administration of the test compound or the vehicle were measured, and the amount changed was evaluated. The value obtained by the administration of the vehicle and the value obtained by the administration of the test compound were compared in a Dunnett's multiple comparison test with a statistically significant difference (P<0.05), and the minimum dose at which the inhibitory action on a decrease in voiding efficiency or on an increase of the amount of residual urine observed was defined as a minimum effective dose (4 rats per group).

T2 sequence (P41968 whole entry): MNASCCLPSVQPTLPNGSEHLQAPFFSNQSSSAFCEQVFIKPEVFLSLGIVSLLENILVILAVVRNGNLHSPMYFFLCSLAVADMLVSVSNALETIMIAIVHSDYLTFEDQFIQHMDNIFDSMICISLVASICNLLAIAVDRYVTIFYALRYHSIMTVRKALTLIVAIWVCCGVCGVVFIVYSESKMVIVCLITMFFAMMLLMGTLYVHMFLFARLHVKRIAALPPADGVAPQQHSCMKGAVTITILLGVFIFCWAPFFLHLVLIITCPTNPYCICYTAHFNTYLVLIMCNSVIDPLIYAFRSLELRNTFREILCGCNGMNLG
T1 sequence (P32245 whole entry): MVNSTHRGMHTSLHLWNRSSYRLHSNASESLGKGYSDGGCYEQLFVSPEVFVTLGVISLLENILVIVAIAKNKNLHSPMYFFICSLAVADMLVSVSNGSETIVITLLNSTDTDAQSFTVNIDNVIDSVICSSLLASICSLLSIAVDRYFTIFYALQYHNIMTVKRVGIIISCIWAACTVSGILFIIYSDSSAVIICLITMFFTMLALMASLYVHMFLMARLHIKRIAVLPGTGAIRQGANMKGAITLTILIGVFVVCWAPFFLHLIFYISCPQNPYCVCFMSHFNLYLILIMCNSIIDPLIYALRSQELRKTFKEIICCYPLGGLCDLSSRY

By EC50 is commonly meant the concentration giving half of the maximal effect. A high value points to weaker potency. As for `CC(=O)N[C@@H](CC(C)C)C(=O)N1CCN(C(=O)[C@@H]2CN(C(C)(C)C)C[C@H]2c2ccc(Cl)cc2F)C[C@H]1C` [Example 5], the EC50 amounted to 6 nM on human MC4 receptor and 550 nM at human MC3 receptor. In experiment [1], the “MED (minimum effective dose)” value is given as 0.01 mg/kg ig.
On the same counts, the results for `CC(=O)N[C@@H](CC(C)(C)C)C(=O)N1CCN(C(=O)[C@@H]2CN(C(C)(C)C)C[C@H]2c2ccc(F)cc2F)[C@@H](C)C1.Cl` [Example 8] are 10 nM, 1000 nM and 0.01 mg/kg ig.
On the same counts, the results for `CC(=O)N[C@H](C(=O)N1CCN(C(=O)[C@@H]2CN(C(C)(C)C)C[C@H]2c2ccc(F)cc2F)[C@@H](C)C1)C1CCCCC1.Cl` [Example 6, N-{(1S)-2-[(3S)-4-{[(3S,4R)-1-tert-butyl-4-(2,4-difluorophenyl)pyrrolidin-3-yl]carbonyl}-3-methylpiperazin-1-yl]-1-cyclohexyl-2-oxoethyl}acetamide monohydrochloride] are 19 nM, 1800 nM and 0.03 mg/kg ig.
As to `CC(=O)N[C@@H](CC(C)(C)C)C(=O)N1C[C@H](C)N(C(=O)[C@@H]2CN(C(C)(C)C)C[C@H]2c2ccc(F)cc2F)C[C@H]1C.Cl` [Example 4, N-{(2S)-1-[(2R,5S)-4-{[(3 S,4R)-1-tert-butyl-4-(2,4-difluorophenyl)pyrrolidin-3-yl]carbonyl}-2,5-dimethylpiperazin-1-yl]-4,4-dimethyl-1-oxopentan-2-yl}acetamide monohydrochloride], the EC50 at human MC4 receptor is 6.8 nM; at human MC3 receptor it was 270 nM. Besides, the “MED (minimum effective dose)” value in experiment [1] is given as 0.01 mg/kg ig.
For `CC(=O)N[C@@H](CC(C)(C)C)C(=O)N1C[C@H](C)N(C(=O)C2CN(C(C)(C)C)CC2c2ccc(F)cc2)C[C@H]1C.Cl` (stereo partly drawn) [Example 11], the EC50 was 11 nM on human MC4 receptor and 890 nM at human MC3 receptor. Also, the “MED (minimum effective dose)” value in experiment [1] was 0.03 mg/kg ig.
